Results reported in US7122335B1, “Compounds and methods to enhance rAAV transduction” (priority 1999, dated 2006).

What was measured:
[1] = tested on: human bronchial epithelia; experiment: Southern blot of Hirt DNA for rAAV genomes in polarized airway epithelia; type: cell-based
Procedure: FIGS. 15A–C. Examination of rAAV endocytosis by Southern blot analysis of viral DNA. Hirt DNA from AV.GFP3ori infected or mock infected (Lanes 1 and 7 in both FIGS. 15A and 15B) human bronchial epithelia were extracted for a direct examination of viral genomes by Southern blotting against a P^32-labeled EGFP probe. FIG. 15A depicts viral binding studies in the presence and absence of LLnL with or without EGTA treatment prior to apical or basolateral infection for 1 hour at 4° C. Cell surface-bound virus was completely removed by trypsin (FIG. 15A, lanes 2 through 6). To determine the amount of the surface-bound rAVV, cells were infected with AV.GFP3ori for 1 hour at 4° C. and were not treated with trypsin prior to Hirt DNA extraction. Panel A: lane 8: apical AAV infection; lane 9: apical AAV infection in the presence of LLnL; lane 10: cells were pre-treated with hypotonic EGTA prior to apical infection in the presence of LLnL; lane 11: basolateral infection; lane 12: basolateral infection in the presence of LLnL. FIG. 15B depicts the results of studies evaluating rAAV internalization from either the apical or the basolateral surface in the presence or absence of LLnL, and the internalization from the apical surface after combined treatment with hypotonic EGTA and LLnL. To detect the net amount of the internalized viral genome, all samples in FIG. 15B were treated with trypsin just before Hirt DNA was harvested. The extent of the internalized virus at 4 hours (FIG. 15B, lanes 2 through 6) and 24 hours (FIG. 15B, lanes 8 through 12) incubation at 37° C. after infection is represented by the intensity of the 1.6 kb single stranded viral genome band. FIG. 15B; lane 2; apical AAV infection for 4 hours; lane 3: apical AAV infection in the presence of LLnL for 4 hours; lane 4: cells were pre-treated with hypotonic EGTA prior to apical infection in the presence of LLnL for 4 hours; lane 5: basal infection for 4 hours; lane 6: basolateral infection in the presence of LLnL for 4 hours; lane 8: apical infection for 24 hours; lane 9: apical infection in the presence of LLnL for 24 hours; lane 10: cells were pre-treated with hypotonic EGTA prior to apical infection in the presence of LLnL for 24 hours; lane 11: basolateral infection for 24 hours; lane 12: basolateral infection in the presence of LLnL for 24 hours. […]
Molecular analysis of rAAV viral genomes owing infection of polarized airway epithelial cultures. […] Following binding, the extent of viral internalization was assessed by continuing incubations in the presence of virus at 37° C. for 4–24 hours. […] The 1.6 kb single stranded viral DNA, the 2.7 kb double stranded circular intermediate, and the 4.7 kb double stranded replication from viral genome were detected with a transgene EGFP specific probe at 5×10^6 cpm/ml. […]

[2] = tested on: polarized human bronchial epithelia; experiment: S35-labeled rAAV binding/entry assay in polarized bronchial epithelia; type: cell-based
Procedure: FIGS. 12A and 12B. Binding and uptake of S^35-labeled AV.GFP3ori in fully differentiated human bronchial epithelia. The ability of polarized bronchial epithelia to bind and internalize virus from the apical or the basolateral surfaces was quantified using S^35-labeled rAAV. The binding assay was performed after incubation with virus at 4° C. for 1 hour, followed by repeated washing in PBS. The combined bound and internalized virus was quantified following incubation with virus at 4° C. for 1 hour, and subsequent incubation at 37° C. for 2 hours and 24 hours. Non-specific background binding of radiolabeled virus was determined in parallel studies on collagen coated empty chambers not seeded with bronchial cells. Background counts (averaging 15.67+/−5.17 cpm/well) were subtracted from experimental sample counts prior to analysis. Data in the right side of each figure is presented as the net cpms of bound/internalized virus (raw counts minus background counts of empty transwells). The results represent the mean (+/−SEM) of 6 independent transwells for each condition. Experiments were performed in triplicate from two independent tissue samples. The significance of the differences between each pair of samples (with or without LLnL) was evaluated using the Student's t-test and p-values are provided in brackets above the data for each condition. To correlate uptake of radioactive virus with the functional expression the rAAV encoded transgene, GFP expression from the same set of samples was quantified at 24 hour post-infection by indirect fluorescent microscopy. […]
Viral binding/entry assays and in situ localization of viral particles. […] Combined binding/entry of rAAV into differentiated airway epithelia was measured under the same conditions, except that the cultures were incubated at 37° C. for an additional 2–24 hours before they were harvested. […] After washing three times in PBS, cells were lysed in situ by the addition of 5 ml of liquid scintillation cocktail at room temperature for 5 minutes, and the radioactivity was quantitated in a scintillation counter.

## N-acetyl-L-leucinyl-L-leucinal-L-norleucinal [LLnL]
[1]; 1 hour at 4° C.
  rAAV binding to either surface (Southern blot): not affected
[1]; LLnL alone
  enzymatic degradation of internalized AAV viral DNA: did not substantially prevent enzymatic degradation
[1]; hypotonic EGTA pretreatment and LLnL
  amount of virus internalized from apical surface: substantially increased the amount of virus internalized
[2]; 2 hour infection period at 37° C.
  uptake of S35 labeled rAAV: not altered
[2]; 24 hours post-infection, either surface infected
  amount of intracellular radioactivity: very significant decrease
[2]; S35 labeled rAAV, with or without LLnL
  4° C. rAAV binding: no significant effect
